Laboratory results published in ChEMBL document CHEMBL1201862, “PubChem BioAssay data set” (2004).
The source made the active and inactive calls. For most assays here, no stated cut-off is given here; in the data, actives have a measured EC50 and inactives only a lower limit.

Assays:
[1] = target: T1, RNA-binding protein pos-1 (Caenorhabditis elegans, UniProt G5EF15); test: disruptors of C. elegans POS-1 RNA interaction – biochemical, fluorescence polarization, dose response (AID 1964);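 further: purified POS-1 fused to maltose binding protein made in E. coli; potency of compounds blocking POS-1 binding to fluorescent RNA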
T1 sequence (G5EF15 whole entry): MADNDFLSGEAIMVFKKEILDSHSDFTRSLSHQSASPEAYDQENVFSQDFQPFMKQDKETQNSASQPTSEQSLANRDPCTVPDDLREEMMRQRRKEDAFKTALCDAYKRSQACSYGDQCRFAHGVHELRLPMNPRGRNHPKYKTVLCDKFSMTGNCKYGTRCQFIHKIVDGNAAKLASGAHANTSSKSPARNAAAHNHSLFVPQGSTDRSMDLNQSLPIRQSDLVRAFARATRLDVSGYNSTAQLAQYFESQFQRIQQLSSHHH

[2] = Luminescence Cell-Based Dose Confirmation HTS to Identify Activators of 5'UTR Stem-Loop Driven Alpha-Synuclein mRNA Translation in H4 Neuroglioblastoma Cells. [Related pubchem assays: 1829 (Project Summary), 1814 (Primary HTS)]; type: functional
[3] = Luminescence Cell-Based Dose Response HTS to Identify Activators of Luciferase Translation or Activity in H4 […] Cells. [Related pubchem assays: 1829 (Project Summary), 1814 (Primary HTS)]; type: functional
[4] = Luminescence Cell-Based Dose Confirmation HTS to Identify Inhibitors of Platelet Dense Granule Release. [Related pubchem assays: 1663 (Primary HTS), 1678 (Summary of Project)]; type: functional
[5] = target: Luciferin 4-monooxygenase (Photinus pyralis, UniProt P08659); test: inhibition of purified Photinus pyralis luciferase – biochemical, luminescence, dose response (AID 1891)
Sequence of Luciferin 4-monooxygenase (P08659 whole entry): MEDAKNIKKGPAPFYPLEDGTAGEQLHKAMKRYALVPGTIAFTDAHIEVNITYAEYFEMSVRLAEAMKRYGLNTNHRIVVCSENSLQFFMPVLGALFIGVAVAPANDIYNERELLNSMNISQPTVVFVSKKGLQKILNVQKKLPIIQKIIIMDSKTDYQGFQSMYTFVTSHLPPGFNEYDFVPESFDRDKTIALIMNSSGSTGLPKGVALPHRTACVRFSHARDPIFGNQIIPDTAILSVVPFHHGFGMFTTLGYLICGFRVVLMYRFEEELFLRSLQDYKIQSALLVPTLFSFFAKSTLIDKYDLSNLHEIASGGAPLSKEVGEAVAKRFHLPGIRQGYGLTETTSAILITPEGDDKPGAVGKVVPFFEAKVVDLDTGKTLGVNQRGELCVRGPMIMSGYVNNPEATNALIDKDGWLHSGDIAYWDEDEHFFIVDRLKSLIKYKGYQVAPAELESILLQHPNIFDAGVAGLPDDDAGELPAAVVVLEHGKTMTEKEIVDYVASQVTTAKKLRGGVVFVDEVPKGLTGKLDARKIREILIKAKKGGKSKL

H4 = test: Luminescence Cell-Based Dose Response HTS to Identify Activators of 5'UTR Stem-Loop Driven Prion Protein mRNA Translation in H4 Neuroglioblastoma Cells. [Related pubchem assays: 1829 (Project Summary), 1814 (Primary HTS)]; type: functional; conditions: Homo sapiens
[6] = target: T2, Heat shock factor protein 1 (Mus musculus, UniProt P38532); test: enhancement of HSF1-driven luciferase signal – cell-based, NIH3T3, luminescence, dose retest, confirmation (AID 435004); type: functional;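 further: stress induced by proteasome inhibitor MG132 added 30 min after compound; luciferase reporter driven by HSF1 response element in NIH3T3 cells; actives raise luminescence as potentiators of the MG132 stress response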
T2 sequence (P38532 whole entry): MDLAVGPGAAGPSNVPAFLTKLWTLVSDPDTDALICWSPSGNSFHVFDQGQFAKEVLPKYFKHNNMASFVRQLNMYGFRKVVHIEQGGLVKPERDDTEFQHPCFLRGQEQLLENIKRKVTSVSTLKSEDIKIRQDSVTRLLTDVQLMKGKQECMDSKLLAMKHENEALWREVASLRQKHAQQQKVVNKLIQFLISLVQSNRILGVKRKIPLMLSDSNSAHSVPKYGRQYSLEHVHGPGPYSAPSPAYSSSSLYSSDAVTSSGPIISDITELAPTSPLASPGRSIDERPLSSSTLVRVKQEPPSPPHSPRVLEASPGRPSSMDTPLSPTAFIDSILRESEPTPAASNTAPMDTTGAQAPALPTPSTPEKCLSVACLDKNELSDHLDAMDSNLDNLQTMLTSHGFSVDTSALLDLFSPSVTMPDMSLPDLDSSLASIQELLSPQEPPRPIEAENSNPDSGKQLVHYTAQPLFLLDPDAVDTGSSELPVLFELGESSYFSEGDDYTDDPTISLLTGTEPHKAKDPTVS

[7] = target: T3, Corticotropin-releasing factor receptor 2/Corticotropin-releasing factor-binding protein (Homo sapiens, UniProt P24387+Q13324); test: activators of CRF receptor 2 with binding protein – uHTS hits, confirmation (AID 602473); type: functional; conditions: read-out: EC50_Mean
T3 sequence (Q13324 whole entry): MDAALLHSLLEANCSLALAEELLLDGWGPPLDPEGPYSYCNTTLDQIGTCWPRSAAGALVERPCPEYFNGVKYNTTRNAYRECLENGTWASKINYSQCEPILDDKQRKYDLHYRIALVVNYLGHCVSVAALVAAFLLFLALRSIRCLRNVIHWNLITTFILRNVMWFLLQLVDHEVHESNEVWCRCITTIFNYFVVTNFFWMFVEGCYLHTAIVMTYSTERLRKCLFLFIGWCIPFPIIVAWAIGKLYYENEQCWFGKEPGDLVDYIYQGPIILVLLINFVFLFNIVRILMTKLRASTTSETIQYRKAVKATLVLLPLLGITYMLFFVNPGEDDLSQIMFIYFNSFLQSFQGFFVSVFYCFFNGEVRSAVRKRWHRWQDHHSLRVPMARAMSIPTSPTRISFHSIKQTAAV
T3 sequence (P24387 whole entry): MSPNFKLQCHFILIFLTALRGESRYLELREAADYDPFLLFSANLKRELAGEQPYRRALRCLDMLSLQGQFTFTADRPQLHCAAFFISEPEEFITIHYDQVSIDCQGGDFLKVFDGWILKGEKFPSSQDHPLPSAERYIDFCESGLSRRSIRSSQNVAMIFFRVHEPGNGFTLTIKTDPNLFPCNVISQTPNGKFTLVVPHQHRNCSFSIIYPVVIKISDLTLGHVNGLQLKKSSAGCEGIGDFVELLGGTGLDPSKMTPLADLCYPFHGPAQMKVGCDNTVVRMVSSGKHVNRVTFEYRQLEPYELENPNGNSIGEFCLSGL

[8] = target: T3, Corticotropin-releasing factor receptor 2/Corticotropin-releasing factor-binding protein; test: Dose Response confirmation of uHTS hits for small molecule antagonists of the CRF-binding protein and CRF-R2 receptor complex.; type: functional; conditions: read-out: IC50_Mean
Cytochrome P450 3A4 = Cytochrome P450 3A4 (Homo sapiens, UniProt P08684);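 further: CYP3A4 tested as one member of a cytochrome P450 panel screen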
Sequence of Cytochrome P450 3A4 (P08684 whole entry): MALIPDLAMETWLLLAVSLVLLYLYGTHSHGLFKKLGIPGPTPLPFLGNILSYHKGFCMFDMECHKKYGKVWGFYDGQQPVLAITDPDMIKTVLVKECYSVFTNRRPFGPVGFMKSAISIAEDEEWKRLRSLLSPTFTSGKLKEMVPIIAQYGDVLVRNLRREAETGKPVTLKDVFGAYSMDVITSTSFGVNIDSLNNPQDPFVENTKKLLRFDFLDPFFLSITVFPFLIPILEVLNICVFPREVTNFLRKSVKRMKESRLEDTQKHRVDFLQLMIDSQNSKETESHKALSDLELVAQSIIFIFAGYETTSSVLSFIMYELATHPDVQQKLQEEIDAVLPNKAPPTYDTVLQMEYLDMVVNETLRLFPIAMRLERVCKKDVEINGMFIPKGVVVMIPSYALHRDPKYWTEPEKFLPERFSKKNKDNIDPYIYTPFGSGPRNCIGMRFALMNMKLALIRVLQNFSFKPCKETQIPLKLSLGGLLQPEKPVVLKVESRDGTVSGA

Cytochrome P450 2D6 = Cytochrome P450 2D6 (Homo sapiens, UniProt P10635);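 further: CYP2D6 member of a cytochrome P450 panel assay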
Sequence of Cytochrome P450 2D6 (P10635 whole entry): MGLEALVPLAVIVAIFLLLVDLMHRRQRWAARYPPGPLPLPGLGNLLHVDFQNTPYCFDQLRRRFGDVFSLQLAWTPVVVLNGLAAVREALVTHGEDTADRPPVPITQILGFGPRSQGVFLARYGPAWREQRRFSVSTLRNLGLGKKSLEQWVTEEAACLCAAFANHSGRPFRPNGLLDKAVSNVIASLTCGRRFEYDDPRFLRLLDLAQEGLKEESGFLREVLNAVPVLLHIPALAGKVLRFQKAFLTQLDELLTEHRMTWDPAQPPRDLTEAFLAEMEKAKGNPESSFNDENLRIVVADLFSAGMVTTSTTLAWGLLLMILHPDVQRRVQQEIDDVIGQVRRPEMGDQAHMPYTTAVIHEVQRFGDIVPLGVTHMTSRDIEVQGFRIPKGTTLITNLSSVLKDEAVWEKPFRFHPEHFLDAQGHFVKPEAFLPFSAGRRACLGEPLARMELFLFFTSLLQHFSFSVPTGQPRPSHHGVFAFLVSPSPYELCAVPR

Cytochrome P450 2C9 = Cytochrome P450 2C9 (Homo sapiens, UniProt P11712)
Sequence of Cytochrome P450 2C9 (P11712 whole entry): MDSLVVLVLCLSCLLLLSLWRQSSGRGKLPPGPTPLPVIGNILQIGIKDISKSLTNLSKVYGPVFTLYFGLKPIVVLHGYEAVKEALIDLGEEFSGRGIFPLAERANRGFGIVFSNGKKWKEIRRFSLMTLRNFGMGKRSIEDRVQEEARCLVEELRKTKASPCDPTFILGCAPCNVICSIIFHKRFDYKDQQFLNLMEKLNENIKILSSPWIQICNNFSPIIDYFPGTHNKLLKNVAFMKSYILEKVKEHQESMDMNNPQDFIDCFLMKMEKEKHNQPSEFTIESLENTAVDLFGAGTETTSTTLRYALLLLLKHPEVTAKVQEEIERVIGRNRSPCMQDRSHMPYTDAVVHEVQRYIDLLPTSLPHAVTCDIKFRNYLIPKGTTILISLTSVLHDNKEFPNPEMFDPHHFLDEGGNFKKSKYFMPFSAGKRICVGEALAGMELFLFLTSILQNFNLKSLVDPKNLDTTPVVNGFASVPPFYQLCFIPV

Cc1cc(C)cc(N2C(=O)NC(=O)/C(=C\c3cccn3-c3ccc(Cl)cc3)C2=O)c1
EC50 [1]: 84.5 µM (active)

CC(C)(C)n1ncc2c(=O)n(CC(=O)c3ccc(Cl)cc3)cnc21
EC50 [2]: 0.168 µM (active) | EC50 [3]: 0.115 µM (active)

N#Cc1ccc(/C=N/NC(=O)CCc2ccc(S(=O)(=O)N3CCOCC3)cc2)cc1
EC50 [4]: > 112 µM (not active) | EC50 [5]: > 112 µM (not active)

O=C(O)c1ccc(/C=N/N2CCN(c3ccccc3)CC2)cc1
EC50 (H4): > 120 µM (not active) | EC50 [2]: 0.687 µM (active) | EC50 [3]: 19.6 µM (active)

CCOC(=O)COc1cccc2c(=O)n(CC(=O)NCCc3ccccc3)ccc12
EC50 (H4): 19.5 µM (active) | EC50 [2]: > 120 µM (not active) | EC50 [3]: > 120 µM (not active)

O=C(CCNC(=O)C1CCN(S(=O)(=O)c2ccccc2)CC1)NCc1ccc(Cl)c(Cl)c1
EC50 [4]: > 112 µM (not active) | EC50 [5]: > 112 µM (not active)

COc1ccc([N+]2=C3CCc4ccccc4N3CC2(C)O)cc1 (stereo not drawn)
EC50 (H4): > 120 µM (not active) | EC50 [2]: > 120 µM (not active) | EC50 [3]: > 120 µM (not active)

CC(C)(C)c1ccc(C(=O)NCC(=O)OCC(=O)Nc2nc(-c3ccc(F)cc3)cs2)cc1
EC50 (H4): 13.5 µM (active) | EC50 [2]: 19.9 µM (active) | EC50 [3]: > 120 µM (not active)

C=CCn1c(SCC(=O)Nc2sc3c(c2C#N)CCC3)nnc1C1COc2ccccc2O1 (stereo not drawn)
EC50 [4]: > 112 µM (not active) | EC50 [5]: 39.7 µM (active)

O=C1/C(=C\c2ccc(Br)o2)Cc2ccccc21
EC50 [6]: 27.6 µM (active)

COc1ccc(C2CC(c3ccccc3OC(=O)/C=C/c3ccccc3)=NN2C(C)=O)cc1 (stereo not drawn)
EC50 (H4): 36.4 µM (active) | EC50 [2]: 14 µM (active) | EC50 [3]: 18.5 µM (active)

CCC1CCCCN1CCCNC(=O)c1cn(C)c2ccc(S(=O)(=O)N(C)C3CCCCC3)cc2c1=O (stereo not drawn)
EC50 [7]: > 53 µM (inactive) | IC50 [8]: > 47.1 µM (inactive)

O=C(Nc1ccc(C(=O)N2CCCC2)cc1)c1ccccc1F
EC50 [7]: > 53 µM (inactive) | IC50 [8]: > 47.1 µM (inactive)

O=C(CSc1nc(-c2ccccc2)cs1)NCCN1C(=O)CSC1=O
EC50 (H4): 17.9 µM (active) | EC50 [2]: 6.7 µM (active) | EC50 [3]: 31.1 µM (active)

O=C(O)C1C2C=CC(C2)C1C(=O)NCc1ccccn1 (stereo not drawn)
EC50 [4]: > 112 µM (not active) | EC50 [5]: > 112 µM (not active)

CSC1=NC(C)(C)CC2(C)Nc3ccccc3N12 (stereo not drawn)
EC50 (H4): > 120 µM (not active) | EC50 [2]: > 120 µM (not active) | EC50 [3]: > 120 µM (not active)

COCCN1CCN(C(=O)c2cc(COc3cc(C)ccc3C)on2)CC1
EC50 [7]: > 53 µM (inactive) | IC50 [8]: > 47.1 µM (inactive)

CC(c1nccs1)N(C)C(=O)c1cn(Cc2cccc3ccccc23)nn1 (stereo not drawn)
EC50 (H4): 47.3 µM (active) | EC50 [2]: 13.2 µM (active) | EC50 [3]: 18 µM (active)

CCOc1ccc(C(=O)Nc2nnc(S(=O)(=O)N(C)Cc3ccco3)s2)cc1
EC50 (H4): 6.04 µM (active) | EC50 [2]: 15.1 µM (active) | EC50 [3]: 0.162 µM (inconclusive)

NC(=O)COC(=O)c1cccc(S(=O)(=O)N2CCCCC2)c1
EC50 [7]: > 53 µM (inactive) | IC50 [8]: > 47.1 µM (inactive)

COc1ccc(-c2[nH]ncc2/C=N/NC(=O)c2ccc(Br)cc2)c(OC)c1
EC50 [4]: 16.1 µM (active) | EC50 [5]: > 112 µM (not active)

Cn1c(=O)oc2cc(S(=O)(=O)NC3CCN(Cc4ccccc4)CC3)ccc21
EC50 [4]: > 112 µM (not active) | EC50 [5]: > 112 µM (not active)

C=CCn1c(=O)c2ccccc2n2c(SCC(=O)Nc3sc(C)c(CC)c3C(=O)OCC)nnc12
EC50 [6]: > 260 µM (inactive)

COc1ccc(OC)c(NC(=O)c2ccccc2NS(=O)(=O)c2cccc3cccnc23)c1
EC50 [7]: > 53 µM (inactive) | IC50 [8]: < 0.368 µM (active)

CN(C)c1nc(NCc2ccccc2)nc(SCC(=O)Nc2ccccc2Cl)n1
EC50 [7]: > 53 µM (inactive) | IC50 [8]: > 47.1 µM (inactive)

CCC(C)(C)n1nnnc1C(c1cccc(C#N)c1)N1CCN(c2cccc(C)c2C)CC1 (stereo not drawn)
EC50 [7]: > 53 µM (inactive) | IC50 [8]: > 47.1 µM (inactive)

COc1cccc(OCc2ccc(Cl)cc2)c1C#N
EC50 [6]: > 260 µM (inactive)

CS(=O)(=O)Nc1cccc(C2=NN(C(=O)CCCC(=O)O)C(c3cccs3)C2)c1 (stereo not drawn)
EC50 [6]: > 260 µM (inactive)

Cc1ccsc1/C=N\NC(=O)CCc1c(C)n[nH]c1C
EC50 [7]: > 53 µM (inactive) | IC50 [8]: > 47.1 µM (inactive)

CC1=CC(C)(C)N=C(S)N1c1cccc(C)c1
EC50 [6]: > 260 µM (inactive) | AC50 (Cytochrome P450 3A4): 25.1 µM (inconclusive) | AC50 (Cytochrome P450 2D6): 6.31 µM (inconclusive) | AC50 (Cytochrome P450 2C9): 3.55 µM (inconclusive)

O=C(OCc1csc(-c2ccccc2)n1)c1cccs1
EC50 [6]: > 260 µM (inactive)

COc1cccc2oc3cc(C#Cc4ccccn4)ccc3c(=O)c12
EC50 [4]: > 112 µM (not active) | EC50 [5]: 23.1 µM (active)

Cc1cc(C)n(Cc2cccc(F)c2)c(=O)c1C#N
EC50 [4]: > 112 µM (not active) | EC50 [5]: > 112 µM (not active)

Cc1nc2sccn2c(=O)c1S(=O)(=O)NC(C)c1ccccc1 (stereo not drawn)
EC50 [4]: > 112 µM (not active) | EC50 [5]: > 112 µM (not active)
